From paper PMC11506356, “Selective Inhibition of Deamidated Triosephosphate Isomerase by Disulfiram, Curcumin, and Sodium Dichloroacetate: Synergistic Therapeutic Strategies for T-Cell Acute Lymphoblastic Leukemia in Jurkat Cells” (Biomolecules, 2024)

What was measured:
[1] = target: T1, deamidated triosephosphate isomerase (dTPI) (Homo sapiens, UniProt P60174, N16D); assay: recombinant enzyme inactivation ([…] h, […] °C; coupled NADH assay), Ellman free-thiol quantification, ANS fluorescence; type: biochemical; settings: 2 h; read-out: recombinant enzyme inactivation (2 h, 37 °C; coupled NADH assay), Ellman free-th
T1 construct: gene TPI1; recombinant human TPI, His-TEV tag removed
T1 sequence (P60174 2-249 N16D): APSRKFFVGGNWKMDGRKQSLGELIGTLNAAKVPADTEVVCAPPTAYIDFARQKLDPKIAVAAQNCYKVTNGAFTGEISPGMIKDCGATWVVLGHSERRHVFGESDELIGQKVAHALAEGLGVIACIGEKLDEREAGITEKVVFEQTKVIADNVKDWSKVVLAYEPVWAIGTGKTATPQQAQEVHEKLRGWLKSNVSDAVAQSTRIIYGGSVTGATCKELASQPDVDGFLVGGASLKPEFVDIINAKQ

[2] = target: T1, deamidated triosephosphate isomerase (dTPI); assay: recombinant enzyme inactivation ([…] h, […] °C; coupled NADH assay), ANS fluorescence; type: biochemical; settings: 2 h; read-out: recombinant enzyme inactivation (2 h, 37 °C; coupled NADH assay), ANS fluorescen

| IC90 [2] [µM] | Structure (SMILES) | IC100 [1] [µM] |
| --- | --- | --- |
|  | CCN(CC)C(=S)SSC(=S)N(CC)CC [DS, disulfiram] | 250 |
| ~1500 | COc1cc(/C=C/C(=O)CC(=O)/C=C/c2ccc(O)c(OC)c2)ccc1O [CU, curcumin] |  |
